According to patent publication US9822099B2, “Triazole derivatives” (priority 2013, dated 2017):
Marks after values point to notes of the source that are not given here.

Columns and labels:
Botrytis cinerea = assay: Example A: in vivo preventive test on Botrytis cinerea (grey mould); settings: gherkin plants, preventive spray, evaluated 4 to 5 days after inoculation
Method: (§1) The young plants of gherkin are treated by spraying the active ingredient prepared as described above. Control plants are treated only with an aqueous solution of acetone/Dimethyl sulfoxide/Tween®. After 24 hours, the plants are contaminated by spraying the leaves with an aqueous suspension of Botrytis cinerea spores.

Puccinia recondita = assay: Example B: in vivo preventive test on Puccinia recondita (brown rust on wheat); settings: wheat plants, preventive spray, evaluated 11 days after inoculation
Method: as §1, with “wheat” for “gherkin”, “Puccinia recondita” for “Botrytis cinerea”

Pyrenophora teres = assay: Example C: in vivo preventive test on Pyrenophora teres (net blotch on barley); settings: barley plants, preventive spray, evaluated 14 days after inoculation
Method: as §1, with “barley” for “gherkin”, “Pyrenophora teres” for “Botrytis cinerea”

Septoria tritici = assay: Example D: in vivo preventive test on Septoria tritici (leaf spot on wheat); settings: wheat plants, preventive spray, evaluated 24 days after inoculation
Method: as §1, with “wheat” for “gherkin”, “Septoria tritici” for “Botrytis cinerea”

Sphaerotheca fuliginea = assay: Example E: in vivo preventive test on Sphaerotheca fuliginea (powdery mildew on cucurbits); settings: gherkin plants, preventive spray, evaluated 15 days after inoculation
Method: as §1, with “Sphaerotheca fuliginea” for “Botrytis cinerea”

Uromyces appendiculatus = assay: Example F: in vivo preventive test on Uromyces appendiculatus (bean rust); settings: bean plants, preventive spray, evaluated 11 days after inoculation
Method: as §1, with “bean” for “gherkin”, “Uromyces appendiculatus” for “Botrytis cinerea”

[1] = system: Blumeria graminis f. sp. hordei; assay: Example G: Blumeria test (barley)/preventive; format: in vivo; settings: 500 ppm of active ingredient, preventive, evaluated 7 days after inoculation
How it was run: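 Active compound formulated in N,N-dimethylacetamide with alkylaryl polyglycol ether emulsifier, diluted in water, and sprayed onto young barley plants at the stated application rate. Once the coating dried, plants were dusted with Blumeria graminis f. sp. hordei spores as a preventive test.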

Fusarium culmorum = assay: Example H: Fusarium culmorum-test (wheat)/curative; format: in vivo; settings: 500 ppm of active ingredient, curative, evaluated 5 days after inoculation
Method: Solvent: 49 parts by weight of N,N-dimethylacetamide
Emulsifier: 1 part by weight of alkylaryl polyglycol ether
To produce a suitable preparation of active compound, 1 part by weight of active compound or active compound combination is mixed with the stated amounts of solvent and emulsifier, and the concentrate is diluted with water to the desired concentration.
To test for curative activity, young plants are slightly injured by using a sandblast and afterwards they are sprayed with a conidia suspension of Fusarium culmorum and placed for 24 hours in a greenhouse under a translucent incubation cabinet at a temperature of approximately 22° C. and a relative atmospheric humidity of approximately 100% and are subsequently sprayed with the preparation of active compound at the stated rate of application.
After the spray coating has been dried, the plants remain in the greenhouse under translucent incubation cloches at a temperature of approximately 22° C. and a relative atmospheric humidity of approximately 100%.
The test is evaluated 5 days after the inoculation. 0% means an efficacy which corresponds to that of the untreated control, while an efficacy of 100% means that no disease is observed.

Fusarium graminearum = format: in vivo; settings: 500 ppm of active ingredient; barley, preventive; evaluated 5 days after inoculation
[2] = system: Fusarium nivale (var. majus); assay: Example J: Fusarium nivale (var. majus)-test (wheat)/preventive; format: in vivo; settings: 500 ppm of active ingredient, preventive, evaluated 5 days after inoculation
How it was run: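 Young wheat plants sprayed preventively with active compound (DMA/emulsifier concentrate diluted in water) at the stated rate, then sandblast-wounded and inoculated with conidia. Held in greenhouse at ~10 °C, ~100% RH. Efficacy scored 5 days post-inoculation: 0% = untreated control, 100% = no disease.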

Leptosphaeria nodorum = assay: Example K: Leptosphaeria nodorum test (wheat)/preventive; format: in vivo; settings: 500 ppm of active ingredient, preventive, evaluated 8 days after inoculation
How it was run: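 Young wheat plants sprayed preventively with compound in N,N-dimethylacetamide/alkylaryl polyglycol ether emulsifier diluted with water at the stated application rate. Once the coating dried, plants were inoculated with a Leptosphaeria nodorum spore suspension.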

Phakopsora pachyrhizi = assay: Example L: Phakopsora test (soybeans)/preventive; format: in vivo; settings: 100 ppm of active ingredient, preventive, evaluated 7 days after inoculation
Podosphaera leucotricha = assay: Example M: Podosphaera test (apples)/preventive; format: in vivo; settings: 100 ppm of active ingredient, preventive, evaluated 10 days after inoculation
Method: (§2) Solvent: 24.5 parts by weight of acetone • 24.5 parts by weight of dimethylacetamide Emulsifier: 1 part by weight of alkylaryl polyglycol ether To produce a suitable preparation of active compound, 1 part by weight of active compound is mixed with the stated amounts of solvent and emulsifier, and the concentrate is diluted with water to the desired concentration. To test for preventive activity, young plants are sprayed with the preparation of active compound at the stated rate of application. After the spray coating has dried on, the plants are inoculated with an aqueous spore suspension of the causal agent of apple mildew (Podosphaera leucotricha).

Pyricularia oryzae = format: in vivo; settings: 500 ppm of active ingredient; rice, preventive; evaluated 8 days after inoculation
Venturia inaequalis = assay: Example O: Venturia test (apples)/preventive; format: in vivo; settings: 100 ppm of active ingredient, preventive, evaluated 10 days after inoculation
Method: as §2, with “application.” for “application. After the spray coating has dried on, the plants are inoculated with an aqueous spore suspension of the causal agent of apple mildew (Podosphaera leucotricha).”

[3] = pH 2.7

Row | SMILES | Eff. % (Botrytis cinerea; 500 ppm of active ingredient) [%] | Eff. % (Puccinia recondita; 500 ppm of active ingredient) [%] | Eff. % (Pyrenophora teres; 500 ppm of active ingredient) [%] | Eff. % (Septoria tritici; 500 ppm of active ingredient) [%] | Eff. % (Sphaerotheca fuliginea; 100 ppm of active ingredient) [%] | Eff. % (Uromyces appendiculatus; 500 ppm of active ingredient) [%] | Eff. % [1] [%] | Eff. % (Fusarium culmorum) [%] | Eff. % (Fusarium graminearum) [%] | Eff. % [2] [%] | Eff. % (Leptosphaeria nodorum) [%] | Eff. % (Phakopsora pachyrhizi) [%] | Eff. % (Podosphaera leucotricha) [%] | Eff. % (Pyricularia oryzae) [%] | Eff. % (Venturia inaequalis) [%] | LogP [3] | Eff. % (Sphaerotheca fuliginea; 500 ppm of active ingredient) [%] | further results
1 | OC(Cc1cccnc1Cl)(Cn1cncn1)C1(Cl)CC1 (stereo not drawn) [Example I-3] | 100 | 98 | 100 | 100 | 100 | 100 | 100 | 100 | 100 | 100 | 100 | 100 | 100 | 100 | 98 | 1.78^[a] |  | 
2 | OC(Cc1ccncc1Cl)(Cn1cncn1)C1(Cl)CC1 (stereo not drawn) [Example I-5, 2-(1-chlorocyclopropyl)-1-(3-chloropyridin-4-yl)-3-(1H-1,2,4-triazol-1-yl)propan-2-ol] | 100 | 100 |  | 100 |  | 98 | 100 | 100 | 100 | 100 | 90 | 100 | 100 | 75 | 100 |  | 100 | 
3 | OC(Cc1ccncc1F)(Cn1cncn1)C1(Cl)CC1 (stereo not drawn) [Example I-18] |  |  |  |  | 100 |  | 100 | 100 | 100 | 100 | 100 | 95 | 97 |  | 100 | 1.29^[a] |  | Eff. % (Botrytis cinerea; 100 ppm of active ingredient): 100%; Eff. % (Puccinia recondita; 100 ppm of active ingredient): 94%; Eff. % (Pyrenophora teres; 100 ppm of active ingredient): 83%; Eff. % (Septoria tritici; 100 ppm of active ingredient): 98%; Eff. % (Uromyces appendiculatus; 100 ppm of active ingredient): 97%
4 | OC(Cc1cccnc1F)(Cn1cncn1)C1(Cl)CC1 (stereo not drawn) [Example I-51] | 100 | 98 | 100 | 100 |  | 86 | 100 | 100 | 100 | 100 | 100 | 100 |  | 80 | 94 | 1.64^[a] | 100 | 
5 | OC(Cc1ccc(Cl)nc1Cl)(Cn1cncn1)C1(Cl)CC1 (stereo not drawn) [Example I-53] | 100 | 94 | 86 | 100 |  | 98 | 100 | 90 | 100 | 100 | 100 | 93 |  | 80 | 97 | 2.55^[a] | 100 | 
